Molecules are shown by their SMILES.

Common to all, as to format: cell-based
Test [1] addresses T1, heteromeric KV7.3/KV7.5 channel (KCNQ3, KCNQ5) (Homo sapiens, UniProt O43525+Q9NR82).
T1 construct: host or cells: HEK293
Briefly: Automated patch-clamp counter-screening against KV7.3/KV7.5 channel. Conditions: HEK293 cells expressing Kv7.3/KV7.5; class by maximal shift in the Vhalf at 30 μM. A digest of the protocol:
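HEK293 cells with constitutive Kv7.3 and tetracycline-inducible Kv7.5 were recorded by automated patch clamp. Ten concentrations (1:3 series from 30 μM, quadruplicate) were tested; Vhalf shifts were fitted with a 4-parameter logistic to give EC50 and maximal Vhalf shift, with selectivity based on the shift at 30 μM.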
On the technique in general: The patch-clamp technique gives a direct electrical read-out from membranes.

Test [2] has as its target T2, heteromeric KV7.2/KV7.3 channels (KCNQ2, KCNQ3) (Homo sapiens, UniProt O43525+O43526).
T2 construct: expressed in transfected cells; host or cells: CHO-K1
Nature of the test: Automated patch-clamp (Sophion Qube 384) potency assay against KV7.2/KV7.3 channels. Conditions: CHO-K1/Kv7.2/Kv7.3 cells; for EC50: EC50 from concentration-response of shift in Vhalf, 10 concentrations up to 30 μM, read-out: Kv7.2/7.3 EC50; for Kv7.2/7.3 ΔV1/2: maximal shift in the Vhalf from the top of the curve. In a few lines:
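Whole-cell automated patch clamp on CHO-K1 cells stably expressing human KV7.2/KV7.3, held at −80 mV; I-V steps −100 to +20 mV (1 s) with 0 mV tail pulses, Boltzmann-fitted activation curves. Ten concentrations (1:3 from 30 μM, quadruplicate) versus 0.3% DMSO control; EC50 and maximal shift from 4-parameter fits of Vhalf shift.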

The target of test [3] is T3, homomeric KV7.4 channel (KCNQ4) (Homo sapiens, UniProt P56696).
T3 construct: host or cells: CHO-K1
Briefly: Automated patch-clamp (Qube) counter-screening assay against KV7.4 channel. The following applies: CHO-K1 cells expressing KV7.4; class by maximal shift in the Vhalf at 30 μM. A digest of the protocol:
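CHO-K1 cells stably expressing homomeric human KV7.4 were recorded on the Qube automated patch clamp. Ten concentrations (1:3 dilutions from 30 μM) were tested in quadruplicate. The mean Vhalf shift was fitted with a 4-parameter logistic to give EC50 and maximal Vhalf shift, and selectivity was based on the shift at 30 μM.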

With `O=C(NCCC1(C(F)(F)F)CC1)NCc1cc(OCC(F)(F)F)ncn1` [Compound 38, 1-((6-(2,2,2-Trifluoroethoxy)pyrimidin-4-yl)methyl)-3-(2-(1-(trifluoromethyl)cyclopropyl)ethyl)urea], the Kv7.3/7.5 selectivity criteria entry in test [1] is “A (Selective compounds showed Kv7.4 and/or Kv7.3/7.5 ΔV1/2 equal to or lower than 15 mV (letter A in table 3))”. In addition, in test [2], the EC50 came to 2020 nM and the “Kv7.2/7.3 ΔV1/2” value came out at 28.31 mV. The Kv7.4 selectivity criteria result in test [3] is listed as “A (Selective compounds showed Kv7.4 and/or Kv7.3/7.5 ΔV1/2 equal to or lower than 15 mV (letter A in table 3))”.

Turning to `O=C(NCCC1(C(F)(F)F)CC1)NCc1ccnc(OCCF)c1` [Compound 17, 1-((2-(2-Fluoroethoxy)pyridin-4-yl)methyl)-3-(2-(1-(trifluoromethyl)cyclopropyl)ethyl)urea], the Kv7.3/7.5 selectivity criteria result in test [1] was “A (Selective compounds showed Kv7.4 and/or Kv7.3/7.5 ΔV1/2 equal to or lower than 15 mV (letter A in table 3))”. In addition, in test [2], the EC50 was 5450 nM and the “Kv7.2/7.3 ΔV1/2” value stood at 28.27 mV. Moreover, the Kv7.4 selectivity criteria entry in test [3] was “A (Selective compounds showed Kv7.4 and/or Kv7.3/7.5 ΔV1/2 equal to or lower than 15 mV (letter A in table 3))”.

Take `O=C(NCc1ccnc(C(F)(F)F)c1)N[C@H]1CCc2ccc(F)cc21` [Compound 94]: the Kv7.3/7.5 selectivity criteria result in test [1] is given as “A (Selective compounds showed Kv7.4 and/or Kv7.3/7.5 ΔV1/2 equal to or lower than 15 mV (letter A in table 3))”. For the same compound, in test [2], the EC50 was determined as 4170 nM and the “Kv7.2/7.3 ΔV1/2” value was found to be 13.23 mV. For the same compound, the Kv7.4 selectivity criteria entry in test [3] is listed as “A (Selective compounds showed Kv7.4 and/or Kv7.3/7.5 ΔV1/2 equal to or lower than 15 mV (letter A in table 3))”.

With `C[C@H](NC(=O)NCCC1(C(F)(F)F)CC1)c1ccnc(C(F)(F)F)c1` [Compound 97], the Kv7.3/7.5 selectivity criteria entry in test [1] is “B (Non-selective compounds showed Kv7.4 and/or Kv7.3/7.5 ΔV1/2 higher than 15 mV (letter B in table 3))”. Besides, in test [2], the EC50 was 2300 nM and the “Kv7.2/7.3 ΔV1/2” value is on record as 26.87 mV. Moreover, in test [3], the Kv7.4 selectivity criteria result is on record as “B (Non-selective compounds showed Kv7.4 and/or Kv7.3/7.5 ΔV1/2 higher than 15 mV (letter B in table 3))”.

`COc1ccc2c(c1)CCC2NC(=O)NCc1ccnc(OCC(F)(F)F)c1` (centres unmarked) [Compound 122]: in test [1], the Kv7.3/7.5 selectivity criteria result is on record as “A (Selective compounds showed Kv7.4 and/or Kv7.3/7.5 ΔV1/2 equal to or lower than 15 mV (letter A in table 3))”. Also, in test [2], the EC50 was determined as 2710 nM and the “Kv7.2/7.3 ΔV1/2” value turned out to be 26.22 mV. For the same compound, the Kv7.4 selectivity criteria entry in test [3] is listed as “A (Selective compounds showed Kv7.4 and/or Kv7.3/7.5 ΔV1/2 equal to or lower than 15 mV (letter A in table 3))”.

On to `O=C(NCc1ccnc(OCC(F)(F)F)c1)Nc1cccc2c1OCCC2` [Compound 140], for which, in test [1], the Kv7.3/7.5 selectivity criteria entry was “A (Selective compounds showed Kv7.4 and/or Kv7.3/7.5 ΔV1/2 equal to or lower than 15 mV (letter A in table 3))”. Also, in test [2], the EC50 came to 3100 nM and the “Kv7.2/7.3 ΔV1/2” value came to 25.85 mV. Further, in test [3], the Kv7.4 selectivity criteria entry is listed as “A (Selective compounds showed Kv7.4 and/or Kv7.3/7.5 ΔV1/2 equal to or lower than 15 mV (letter A in table 3))”.

For `O=C(NCCC1(C(F)(F)F)CC1)NCc1ccnc(C(F)F)c1` [Compound 109], in test [1], the Kv7.3/7.5 selectivity criteria entry is recorded as “A (Selective compounds showed Kv7.4 and/or Kv7.3/7.5 ΔV1/2 equal to or lower than 15 mV (letter A in table 3))”. In test [2], the EC50 came out at 4790 nM and the “Kv7.2/7.3 ΔV1/2” value amounted to 16.81 mV. Moreover, the Kv7.4 selectivity criteria entry in test [3] is “A (Selective compounds showed Kv7.4 and/or Kv7.3/7.5 ΔV1/2 equal to or lower than 15 mV (letter A in table 3))”.

In the case of `CC(C)(C)[C@@H](O)CNC(=O)NCc1ccnc(OCCC(F)(F)F)c1` [Compound 78, (R)-1-(2-Hydroxy-3,3-dimethylbutyl)-3-((2-(3,3,3-trifluoropropoxy)pyridin-4-yl)methyl)urea], in test [1], the Kv7.3/7.5 selectivity criteria result is listed as “A (Selective compounds showed Kv7.4 and/or Kv7.3/7.5 ΔV1/2 equal to or lower than 15 mV (letter A in table 3))”. Besides, in test [2], the EC50 was found to be 11700 nM and the “Kv7.2/7.3 ΔV1/2” value is listed as 19.21 mV. The Kv7.4 selectivity criteria entry in test [3] is on record as “A (Selective compounds showed Kv7.4 and/or Kv7.3/7.5 ΔV1/2 equal to or lower than 15 mV (letter A in table 3))”.

Take `O=C(NCc1ccnc(OCC(F)(F)F)c1)N[C@@H]1CCCC[C@@H]1O` [Compound 62, 1-((1R,2S)-2-Hydroxycyclohexyl)-3-((2-(2,2,2-trifluoroethoxy)pyridin-4-yl)methyl) urea]: the Kv7.3/7.5 selectivity criteria result in test [1] is listed as “B (Non-selective compounds showed Kv7.4 and/or Kv7.3/7.5 ΔV1/2 higher than 15 mV (letter B in table 3))”. In test [2], the EC50 was 11700 nM and the “Kv7.2/7.3 ΔV1/2” value was 16.94 mV. Besides, in test [3], the Kv7.4 selectivity criteria entry is “A (Selective compounds showed Kv7.4 and/or Kv7.3/7.5 ΔV1/2 equal to or lower than 15 mV (letter A in table 3))”.

For `COc1ccc2c(c1)[C@@H](NC(=O)NCc1ccnc(OCC(F)(F)F)c1)CC2` [Compound 128], in test [1], the Kv7.3/7.5 selectivity criteria result is “A (Selective compounds showed Kv7.4 and/or Kv7.3/7.5 ΔV1/2 equal to or lower than 15 mV (letter A in table 3))”. In test [2], the EC50 was 397 nM and the “Kv7.2/7.3 ΔV1/2” value came out at 15.68 mV. For the same compound, the Kv7.4 selectivity criteria result in test [3] was “A (Selective compounds showed Kv7.4 and/or Kv7.3/7.5 ΔV1/2 equal to or lower than 15 mV (letter A in table 3))”.

On to `O=C(NCCC1(C(F)(F)F)CC1)NCc1ccnc(OCC2(F)CC2)c1` [Compound 22, 1-((2-((1-Fluorocyclopropyl)methoxy)pyridin-4-yl)methyl)-3-(2-(1-(trifluoromethyl)cyclopropyl)ethyl)urea], for which the Kv7.3/7.5 selectivity criteria entry in test [1] is recorded as “A (Selective compounds showed Kv7.4 and/or Kv7.3/7.5 ΔV1/2 equal to or lower than 15 mV (letter A in table 3))”. Moreover, in test [2], the EC50 worked out at 1940 nM and the “Kv7.2/7.3 ΔV1/2” value is listed as 27.07 mV. In addition, in test [3], the Kv7.4 selectivity criteria result is listed as “A (Selective compounds showed Kv7.4 and/or Kv7.3/7.5 ΔV1/2 equal to or lower than 15 mV (letter A in table 3))”.

As to `O=C(NCc1ccnc(OCC(F)(F)F)c1)N[C@H]1CCc2cc(F)c(F)cc21` [Compound 120], the Kv7.3/7.5 selectivity criteria result in test [1] is “A (Selective compounds showed Kv7.4 and/or Kv7.3/7.5 ΔV1/2 equal to or lower than 15 mV (letter A in table 3))”. Besides, in test [2], the EC50 was 276 nM and the “Kv7.2/7.3 ΔV1/2” value was found to be 16.57 mV. The Kv7.4 selectivity criteria entry in test [3] is reported as “B (Non-selective compounds showed Kv7.4 and/or Kv7.3/7.5 ΔV1/2 higher than 15 mV (letter B in table 3))”.

Take `O=C(NCc1ccnc(OCC(F)(F)F)c1)NC1COc2ccc(F)cc21` (centres unmarked) [Compound 147]: the Kv7.3/7.5 selectivity criteria result in test [1] is “A (Selective compounds showed Kv7.4 and/or Kv7.3/7.5 ΔV1/2 equal to or lower than 15 mV (letter A in table 3))”. In addition, in test [2], the EC50 turned out to be 1890 nM and the “Kv7.2/7.3 ΔV1/2” value was 15.93 mV. The Kv7.4 selectivity criteria result in test [3] is reported as “A (Selective compounds showed Kv7.4 and/or Kv7.3/7.5 ΔV1/2 equal to or lower than 15 mV (letter A in table 3))”.

Turning to `O=C(NCc1ccnc(OCc2ccccc2)c1)Nc1cccc(F)c1` [Compound 1, 1-((2-(Benzyloxy)pyridin-4-yl)methyl)-3-(3-fluorophenyl)urea], the Kv7.3/7.5 selectivity criteria result in test [1] is reported as “B (Non-selective compounds showed Kv7.4 and/or Kv7.3/7.5 ΔV1/2 higher than 15 mV (letter B in table 3))”. Further, in test [2], the EC50 is 600 nM and the “Kv7.2/7.3 ΔV1/2” value is recorded as 30.51 mV. The Kv7.4 selectivity criteria result in test [3] is on record as “B (Non-selective compounds showed Kv7.4 and/or Kv7.3/7.5 ΔV1/2 higher than 15 mV (letter B in table 3))”.

As to `O=C(NCc1ccnc(OCC(F)(F)F)c1)NC1CCc2c(F)cc(F)cc21` (centres unmarked) [Compound 135], the Kv7.3/7.5 selectivity criteria entry in test [1] is reported as “A (Selective compounds showed Kv7.4 and/or Kv7.3/7.5 ΔV1/2 equal to or lower than 15 mV (letter A in table 3))”. In test [2], the EC50 was 351 nM and the “Kv7.2/7.3 ΔV1/2” value was 22.58 mV. The Kv7.4 selectivity criteria entry in test [3] was “A (Selective compounds showed Kv7.4 and/or Kv7.3/7.5 ΔV1/2 equal to or lower than 15 mV (letter A in table 3))”.

In the case of `O=C(NCc1ccnc(OCC(F)(F)F)c1)N[C@@H]1CCc2c(Cl)cccc21` [Compound 121], the Kv7.3/7.5 selectivity criteria entry in test [1] is listed as “B (Non-selective compounds showed Kv7.4 and/or Kv7.3/7.5 ΔV1/2 higher than 15 mV (letter B in table 3))”. Further, in test [2], the EC50 was 1560 nM and the “Kv7.2/7.3 ΔV1/2” value was found to be 38.54 mV. Further, the Kv7.4 selectivity criteria entry in test [3] is given as “B (Non-selective compounds showed Kv7.4 and/or Kv7.3/7.5 ΔV1/2 higher than 15 mV (letter B in table 3))”.

For the compound `O=C(NCc1ccnc(OCC(F)(F)F)c1)N[C@H]1CCOc2ccccc21` [Compound 132], in test [1], the Kv7.3/7.5 selectivity criteria result is reported as “A (Selective compounds showed Kv7.4 and/or Kv7.3/7.5 ΔV1/2 equal to or lower than 15 mV (letter A in table 3))”. For the same compound, in test [2], the EC50 was 3240 nM and the “Kv7.2/7.3 ΔV1/2” value is reported as 19.47 mV. In addition, the Kv7.4 selectivity criteria result in test [3] was “A (Selective compounds showed Kv7.4 and/or Kv7.3/7.5 ΔV1/2 equal to or lower than 15 mV (letter A in table 3))”.

(Values after patent US20260207563A1, “UREA COMPOUNDS AS ACTIVATORS OF POTASSIUM CHANNELS KV7.2/7.3 USEFUL IN THE TREATMENT OF CNS AND PNS DISORDERS” (ANGELINI PHARMA S.P.A., priority 2022, published 2026).)
